Assay results as given in patent publication US20220267479A1, “POLYIODIDE BINDING COMPOUNDS AND METHODS OF USE THEREOF” (North Carolina State University, priority 2019, published 2022).
Values joined by “and” are separate entries in the source; they are usually repeats but may differ in a detail not shown here. Equal entries are not always repeated. Marks after values point to notes of the source that are not given here.

Tests used:
Type in all cases: biochemical
[1] = molecular target: T1, β-glucosidase from Agrobacterium (Agrobacterium sp., UniProt P12614); experiment: Indigogenic reaction with β-glucosidase from Agrobacterium
T1 construct: purchased Megazyme; host or cells: recombinant
T1 sequence (P12614 1-459): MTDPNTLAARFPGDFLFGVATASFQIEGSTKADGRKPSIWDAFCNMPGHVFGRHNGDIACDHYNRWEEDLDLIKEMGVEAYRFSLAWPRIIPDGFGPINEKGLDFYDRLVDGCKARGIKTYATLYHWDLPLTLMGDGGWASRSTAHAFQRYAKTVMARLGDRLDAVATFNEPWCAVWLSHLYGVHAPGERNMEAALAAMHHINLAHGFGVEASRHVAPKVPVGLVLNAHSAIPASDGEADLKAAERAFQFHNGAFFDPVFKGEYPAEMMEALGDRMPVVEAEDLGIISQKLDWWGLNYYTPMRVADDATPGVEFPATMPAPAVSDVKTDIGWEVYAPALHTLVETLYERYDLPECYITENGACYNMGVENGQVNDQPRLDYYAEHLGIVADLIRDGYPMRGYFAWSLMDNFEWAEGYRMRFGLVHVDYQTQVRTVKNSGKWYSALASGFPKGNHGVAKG
Description: Next, the β-glucosidase from Agrobacterium sp. was investigated as the trigger enzyme for indigoid dye formation. […]
Reactions with β-glucosidase from Agrobacterium. An indoxyl compound in DMF (2 μL, 5 mM) and β-glucosidase from Agrobacterium in 10 mM phosphate buffer [2 μL, 10 μM, pH 7.0, containing 50 mM NaCl and 0.6 M (NH4)2SO4] were mixed with 50 mM phosphate buffer (96 μL, pH 7.0). The reaction mixture was incubated at 37° C. for 2 h and then centrifuged for 3 min. Any precipitate was separated from the supernatant and dissolved in DMF (200 μL). The resulting solution was analyzed by absorption spectroscopy. The experiment was repeated three times.

rat liver homogenate = experiment: Indigoid-dye formation in rat liver homogenate; conditions: indoxyl 1 mM, 5% DMF, 37° C., 24 h; ε = 1.27 × 10^4 M^-1 cm^-1
Description: Finally, indigoid-dye formation was carried out in rat liver homogenate (Table 1, rightmost column).
Reactions in rat liver homogenate. An indoxyl compound in DMF (5 μL, 20 mM) was mixed with rat liver homogenate (95 μL). The reaction mixture was incubated at 37° C. for 24 h. After allowing to cool to room temperature, the reaction mixture was diluted with DMF (900 μL). The mixture was heated at 70° C. for 2 min and then centrifuged for 2 min. The supernatant was separated from any precipitate. This extraction procedure was repeated two or three times with DMF (100-500 μL). The combined supernatant (1500-1800 μL) was analyzed by absorption spectroscopy.

[2] = test system: β-glucosidase from almonds; experiment: Indigogenic reaction with β-glucosidase from almonds
Source text: With diverse glucosyl-indoxyl compounds in hand, we carried out a set of studies to examine indigoid-dye formation upon enzymatic cleavage of the glucosyl unit under physiological conditions. Altogether, 14 new (15, 16, 19-27, 30, 33, 41) and 2 known (1, 42) synthetic indoxyl-glucosides (lacking acetyl protecting groups) were examined in an effort to identify suitable combinations of substituents to support both bioconjugation and indigoid dye formation. In initial studies, β-glucosidase from almonds was employed to trigger indigoid dye formation (Table 1). Thus, a mixture of this enzyme (1 unit/mL) and an indoxyl β-glucoside (0.1 μmol, 1 mM) in acetate buffer (pH 5, containing 5% DMF) was incubated at 37° C. for 16-19 h. All indigoid dye was dissolved in each case for quantitative evaluation.
Reactions with β-glucosidase from almonds. An indoxyl compound in DMF (5 μL, 20 mM) and β-glucosidase from almonds in H2O (10 μL, 10 units/mL) were mixed with acetate buffer (85 μL, 50 mM, pH 5.0). The reaction mixture was incubated at 37° C. for 16-19 h and then allowed to cool to room temperature. DMF (300 μL for the reactions of 15, 16, 1, 19, 22, and 25; or 900 μL for the reactions of 42, 20, 21, 23, 24, 26, 27, 30, and 31, respectively) was added to dissolve any indigoid precipitate. The resulting solution was analyzed by absorption spectroscopy.

[3] = molecular target: T1, β-glucosidase from Agrobacterium; experiment: Enzyme-triggered oligomerization of bis(indoxyl-glucoside) 46
Description: Oligomerization of 46 was carried out by treatment with β-glucosidase from Agrobacterium (200 nM) in 10 mM phosphate buffer (pH 7) at 37° C. for 2-4 h (Scheme 9). Precipitation occurred during the reaction. After centrifugation, the precipitate was separated from the supernatant, washed with H2O, and dried to afford a blue solid.
The efficacy of the indigogenic oligomerization was examined under a variety of conditions. As shown in entries 1-4 in Table 2, the yield of indigoid dye in the supernatant versus precipitate reversed as the concentration of 46 was decreased from 300 to 10 μM, although the total yields were in the range 17-29%. While the reactions in entries 1-4 were carried out in phosphate buffer containing NaCl (0.05 M), those of entries 5 and 6 (with 300 and 50 μM of 46, respectively) were conducted in NaCl-free phosphate buffer. The use of NaCl-free phosphate buffer facilitated extraction of the indigoid dye in the supernatant for analysis.

tritosomes = experiment: Indigoid dye formation with tritosomes
Description: The results from the glucosidase survey prompted several further experiments. First, a parallel set of studies was carried out with inclusion of several oxidants commonly employed in histochemical studies, given that the indigoid dye forming process requires the presence of an oxidant. […] The activity of the β-glucosidase was affected only slightly in the presence of a non-ionic detergent. To verify that the results observed in Table 1 were reliable, a 5-mg scale reaction of 33 was carried out to isolate indigo 43, which was obtained in 66% yield (Scheme 7). The 66% isolated yield corresponded well with the enzymatic yield of […] (Table 1, entry 15).
General methods. β-Glucosidase from almonds (lyophilized powder, >2 units/mg solid) and peroxidase from horseradish were purchased from Sigma-Aldrich. O-Glucosidase from Agrobacterium sp. (recombinant, suspension in 3.2 M (NH4)2SO4) was purchased from Megazyme; the concentration in solution was determined by absorption spectroscopy with E^0.1%32 2.20 cm^−1 at 280 nm.^37 Tritosomes were purchased from XenoTech. Rat liver homogenate was purchased from MP Biomedicals.

[4] = as E4 but ε = 2.6 × 10^4 M^-1 cm^-1 measured for 43
[5] = indoxyl 100 μM, enzyme 200 nM, 0.05 M phosphate buffer pH 7.0, 2% DMF, 37° C., 2 h, n=3, ε = 1.27 × 10^4 M^-1 cm^-1
[6] = indoxyl 1 mM, enzyme 1 unit/mL, acetate buffer pH 5, 5% DMF, 37° C., 16-19 h, ε = 1.27 × 10^4 M^-1 cm^-1 (measured for 4)
[7] = entry 1: [46] 300 μM, 2 h, phosphate buffer containing NaCl (0.05M)
[8] = entry 2: [46] 100 μM, 3 h, phosphate buffer containing NaCl (0.05M)
[9] = entry 3: [46] 50 μM, 2 h, phosphate buffer containing NaCl (0.05M), repeated three times
[10] = entry 4: [46] 10 μM, 4 h, phosphate buffer containing NaCl (0.05M)
[11] = entry 5: [46] 300 μM, 3 h, NaCl-free phosphate buffer containing DMF (0.1-0.6%)
[12] = entry 6: [46] 50 μM, 3 h, NaCl-free phosphate buffer containing DMF (0.1-0.6%)
[13] = as E1 but ε = 2.6 × 10^4 M^-1 cm^-1 measured for 43

Compound | Yield (%) β-glucosidase from Agrobacterium [1, 4] | Yield (%) β-glucosidase from Agrobacterium [1, 5] | Yield (%) rat liver homogenate (rat liver homogenate) | Yield (%) β-glucosidase from almonds [2, 6] | other results
OC[C@H]1O[C@@H](Oc2c[nH]c3cc(Br)c(OCC4[C@H]5CCC#CCC[C@@H]45)c(Br)c23)[C@H](O)[C@@H](O)[C@@H]1O (stereo partly drawn) [Indoxyl 30, 5-{[(1R,8S,9s)-Bicyclo[6.1.0]non-4-yn-9-yl]methoxy}-4,6-dibromo-1H-indole-3-yl β-D-glucopyranoside] | 10% and 10 ± 0.4% | 21 ± 1% | – | – | –
C#CCOc1ccc2[nH]cc(O[C@@H]3O[C@H](CO)[C@@H](O)[C@H](O)[C@H]3O)c2c1 [Indoxyl 25, 5-Propargyloxy-1H-indol-3-yl β-D-glucopyranoside] | – | 37 ± 2% | 11% | <5% | –
O=S(=O)([O-])CCC[N+]1(CCCO)CCN(c2nc(OCCOCCOCCOc3c(Br)cc4[nH]cc(O[C@@H]5O[C@H](CO)[C@@H](O)[C@H](O)[C@H]5O)c4c3Br)nc(OCCOCCOCCOc3c(Br)cc4[nH]cc(O[C@@H]5O[C@H](CO)[C@@H](O)[C@H](O)[C@H]5O)c4c3Br)n2)CC1 [Indoxyl 46] | – | – | – | – | Total yields of indigoid dye (supernatant plus precipitate) ([3]; entries 1-4, [46] 300 to 10 μM): 17-29%; Yield of indigoid dye (%) precipitate [3, 7]: 11%; Yield of indigoid dye (%) supernatant [3, 7]: 6%; Yield of indigoid dye (%) precipitate [3, 8]: 14%; Yield of indigoid dye (%) supernatant [3, 8]: 10%; Yield of indigoid dye (%) precipitate [3, 9]: 16 ± 0.6^c %; Yield of indigoid dye (%) supernatant [3, 9]: 13 ± 0.4^c %; Yield of indigoid dye (%) precipitate [3, 10]: 6%; Yield of indigoid dye (%) supernatant [3, 10]: 22%; Yield of indigoid dye (%) precipitate [3, 11]: 13%; Yield of indigoid dye (%) supernatant [3, 11]: 13%; Yield of indigoid dye (%) precipitate [3, 12]: 8%; Yield of indigoid dye (%) supernatant [3, 12]: 19%
COC(=O)COc1ccc2[nH]cc(O[C@@H]3O[C@H](CO)[C@@H](O)[C@H](O)[C@H]3O)c2c1Br [Indoxyl 23, 4-Bromo-5-(methoxycarbonyl)methoxy-1H-indol-3-yl β-D-glucopyranoside] | – | 84 ± 4% | <5% | 68% | –
5-[(Benzylcarbamoyl)oxy)]-1H-indole-3-yl β-D-glucopyranoside [Indoxyl 16] | – | – | 9% | – | Indigoid dye formation with tritosomes (tritosomes): low yield of indigoid dye
5-bromo-4-chloroindoxyl β-glucoside [Indoxyl 42, reference compound] | – | – | 65% | – | Yield (%) β-glucosidase from Agrobacterium ([1]; as E4 but ε = 2.00 × 10^4 M^-1 cm^-1 reported for 5,5′-dibromo-4,4′-dichloroindigo): 116% and 116 ± 8^e %; Yield (%) β-glucosidase from almonds ([2]; as E1 but ε = 2.00 × 10^4 M^-1 cm^-1 reported for 5,5′-dibromo-4,4′-dichloroindigo): 74% and 74^e %
C#CCOc1ccc2[nH]cc(O[C@@H]3O[C@H](CO)[C@@H](O)[C@H](O)[C@H]3O)c2c1Br [Indoxyl 26, 4-Bromo-5-propargyloxy-1H-indol-3-yl β-D-glucopyranoside] | – | 79 ± 1% | 17% | 56% | –
C#CCOc1c(Br)cc2[nH]cc(O[C@@H]3O[C@H](CO)[C@@H](O)[C@H](O)[C@H]3O)c2c1Br [Indoxyl 27, 4,6-Dibromo-5-propargyloxy-1H-indol-3-yl β-D-glucopyranoside] | 89 ± 2% | 184 ± 3% | 50% | 105% | Yield (%) β-glucosidase from almonds [2, 13]: 51%
COC(=O)COc1c(Br)cc2[nH]cc(O[C@@H]3O[C@H](CO)[C@@H](O)[C@H](O)[C@H]3O)c2c1Br [Indoxyl 24, 4,6-Dibromo-5-(methoxycarbonyl)methoxy-1H-indol-3-yl β-D-glucopyranoside] | 102 ± 3% | 209 ± 6% | <5% | 122% | Yield (%) β-glucosidase from almonds [2, 13]: 59%
COc1nc(Oc2c(Br)cc3[nH]cc(O[C@@H]4O[C@H](CO)[C@@H](O)[C@H](O)[C@H]4O)c3c2Br)nc(N2CCOCC2)n1 [Indoxyl 21, 4,6-Dibromo-5-[(4-methoxy-6-morpholino-1,3,5-triazin-2-yl)oxy]-1H-indole-3-yl β-D-glucopyranoside] | 31 ± 2% | 63 ± 4% | <5% | – | –
COC(=O)COc1ccc2[nH]cc(O[C@@H]3O[C@H](CO)[C@@H](O)[C@H](O)[C@H]3O)c2c1 [Indoxyl 22, 5-(Methoxycarbonyl)methoxy-1H-indol-3-yl β-D-glucopyranoside] | – | 30 ± 6% | <5% | <1% | –
COc1nc(Oc2ccc3[nH]cc(O[C@@H]4O[C@H](CO)[C@@H](O)[C@H](O)[C@H]4O)c3c2Br)nc(N2CCOCC2)n1 [Indoxyl 20, 4-Bromo-5-[(4-methoxy-6-morpholino-1,3,5-triazin-2-yl)oxy]-1H-indole-3-yl β-D-glucopyranoside] | – | 150 ± 3% | <5% | – | –
